Laboratory results from patent publication US20220288001A1, “CREATINE FOR IMMUNOTHERAPY” (The Regents of the University of California, priority 2019, published 2022).

Experiments:
B16-OVA tumors [1] = assay: B16-OVA tumors in C57BL/6J WT mice depleted of T cells by anti-CD3 antibody, creatine supplementation; format: in vivo, mouse; details: B16-OVA in C57BL/6J WT mice depleted of T cells via i.p. anti-CD3 depletion antibody
Method: To establish solid tumors, mice were s.c. injected above the right flank with 1×10^6 B16-OVA or 3×10^5 MC38 cells. Before injection, cells in log phase of growth were harvested and suspended in phosphate-buffered saline (PBS), and 50 μl of cell suspension were injected subcutaneously above the flank. Tumor size was periodically measured with a digital Vernier caliper (Thermo Fisher Scientific). For creatine supplementation via i.p. injection, […] monohydrate (cat #C3630, Sigma-Aldrich) was dissolved in sterile PBS and i.p. injected to experimental animals daily at a dose of 10.5 mg per animal per injection. To study the effects of creatine supplementation on suppressing tumor growth, B6 mice were inoculated with B16-OVA tumor cells and monitored for tumor growth, with or without receiving creatine supplementation via i.p. injection or diet. […] To study the T cell-dependence of creatine supplementation induced anti-tumor effects, B6-OVA tumor growth was monitored and compared in B6 mice receiving i.p. injection of an anti-CD3 T cell depleting antibody ([…]; 100 μg/mouse/injection, twice per week) or an isotype control antibody (clone LTF-2, 100 μg/mouse/injection, twice per week), with or without i.p. supplement of creatine.

[2] = humans (Kreider et al., 2017); cited from earlier work
B16-OVA tumors [3] = assay: B16-OVA tumors in immunodeficient NSG mice, creatine supplementation; format: in vivo, mouse; details: i.p. creatine
cancer growth = details: early studies (Kristensen et al., 1999; Miller et al., 1993); cited from earlier work
[4] = system: tumor-infiltrating CD8 T cells; assay: Flow cytometry phenotype of tumor-infiltrating CD8 T cells in B16-OVA model; format: in vivo, mouse; details: B16-OVA tumors collected day 17; creatine supplementation
Text: Fluorochrome-conjugated monoclonal antibodies specific for mouse CD45.2 (cat #109820; clone 104), TCRβ (cat #109220; clone H57-597), CD4 (cat #100531; clone RM4-5), IFN-γ (cat #505806; clone XMG1.2), Granzyme B (cat #372208; clone QA16A02). TCR Vα2 (cat #127809; clone B20.1), CD69 (cat #104508; clone H1.2F3), CD25 (cat #102006; clone PC61), CD8 (cat #100732: clone 53-6.7), CD44 (cat #103030; clone IM7), LAG-3 (CD223) (cat #125207; clone C9B7W), and Tim-3 (CD366) (cat #119705; clone RMT3-23) were purchased from BioLegend. […] Stained cells were analyzed using a MACSQuant Analyzer 10 Flow Cytometer (Miltenyi Biotee). […] To assess gene expression, CD45^+ immune cells were sorted from TIIs using flow cytometry then analyzed for CrT mRNA expression using qPCR. To assess T cell activation status, TIIs were analyzed for surface activation marker (CD25 and PD-1) expression using flow cytometry. […] TIIs were analyzed for intracellular Granzyme B expression using flow cytometry. To assess T cell cytokine production, Tis were stimulated with PMA (50 ng/ml)+Ionomycine (500 ng/ml) in the presence of GolgiStop (4 μl per 6 ml culture) for 4 hours, then analyzed for intracellular cytokine (IL-2 and IFN-γ) production using flow cytometry. […]

[5] = Creatine quantification in serum after creatine supplementation; format: in vivo, mouse; details: C57BL/6J WT mice, B16-OVA model; i.p. injection or dietary supplementation (0.4 g/kg body weight), both routes
Text: A Creatine Assay Kit (Cat #ab65339, Abcam) was utilized to quantify creatine, both in vivo and in vitro, following the manufacturer's instructions. For the in vivo study, whole blood was collected (retro-orbital bleeding) from the experimental mice in a capillary tube, and the isolated serum was immediately used for the assay following the manufacturer's directions. For the in vitro study, cells were spun to remove culture media and suspended in cold PBS. Creatine was then quantified following the manufacturer's directions. The total amount of creatine detected was then normalized to cell numbers.
For creatine supplementation via i.p. injection, ceatine monohydrate (cat #C3630, Sigma-Aldrich) was dissolved in sterile PBS and i.p. injected to experimental animals daily at a dose of 10.5 mg per animal per injection.
For creatine supplementation via diet, experimental animals were fed a creatine-enriched isocaloric diet which is a customized formulation based on PicoLab Rodent Diet 20 enriched in creatine (3 g/Kg diet, cat #TD.170082, Envigo Teklad Diet). The diet was designed to reflect the safe daily dose of creatine recommended for enhanced athletic performance in humans (Mayo Clinic data). Non-treated mice (Ctrl) were fed a control diet prepared in a manner similar to that of the creatine-enriched diet.

Question: Which results are given for CN(CC(=O)O)C(=N)N [creatine]?
Answer: tumor growth (B16-OVA tumors [1]): could not be suppressed; safety of long-term supplementation [2]: well-documented safety; tumor growth (B16-OVA tumors [3]): could not be suppressed; direct inhibition of cancer growth (cancer growth): could directly inhibit cancer growth; “exhaustion-prone” phenotype cells (PD-1hiCD62Llo) among tumor-infiltrating CD8 T cells [4]: significant reduction; creatine concentrations in blood (serum) [5]: elevated creatine concentrations in blood to a similar level
